Data on 21 compounds can be found in patent publication US20090203577A1 (EXELIXIS, INC., priority 2005, published 2009).

For this assay, the target named is T1, human farnesoid X receptor (Homo sapiens, UniProt Q96RI1).
T1 construct: CMX-farnesoid X receptor (full length human farnesoid X receptor); expressed in transfected cells; host or cells: CV-1 African Green Monkey Kidney cells
T1 sequence (Q96RI1 1-472 isoform Q96RI1-2): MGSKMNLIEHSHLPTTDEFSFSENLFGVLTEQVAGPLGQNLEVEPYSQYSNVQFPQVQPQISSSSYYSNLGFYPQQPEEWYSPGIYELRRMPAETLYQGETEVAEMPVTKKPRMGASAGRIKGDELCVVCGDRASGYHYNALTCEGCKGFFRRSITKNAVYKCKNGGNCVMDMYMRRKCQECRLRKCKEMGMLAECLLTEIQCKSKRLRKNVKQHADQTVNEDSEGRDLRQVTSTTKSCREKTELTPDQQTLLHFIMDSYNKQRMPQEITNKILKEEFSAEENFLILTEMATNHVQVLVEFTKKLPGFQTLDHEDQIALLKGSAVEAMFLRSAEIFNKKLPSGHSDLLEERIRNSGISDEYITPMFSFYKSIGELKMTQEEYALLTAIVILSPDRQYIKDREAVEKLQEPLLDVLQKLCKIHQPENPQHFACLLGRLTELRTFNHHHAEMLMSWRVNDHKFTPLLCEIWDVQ
T1 sequence (P19793 1-462 partner): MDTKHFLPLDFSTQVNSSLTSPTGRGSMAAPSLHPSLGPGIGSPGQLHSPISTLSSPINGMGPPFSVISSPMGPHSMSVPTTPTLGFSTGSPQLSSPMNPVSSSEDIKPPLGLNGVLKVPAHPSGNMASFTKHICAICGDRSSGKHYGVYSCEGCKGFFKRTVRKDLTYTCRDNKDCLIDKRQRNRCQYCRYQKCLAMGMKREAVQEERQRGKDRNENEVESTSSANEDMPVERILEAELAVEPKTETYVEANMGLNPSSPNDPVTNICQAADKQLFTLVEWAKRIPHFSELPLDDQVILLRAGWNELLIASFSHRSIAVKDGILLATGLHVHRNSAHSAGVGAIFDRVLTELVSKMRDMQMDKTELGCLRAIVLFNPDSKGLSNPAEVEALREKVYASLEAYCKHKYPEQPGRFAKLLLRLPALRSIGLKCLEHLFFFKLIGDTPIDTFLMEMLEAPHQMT
Put plainly: FXR in vitro assays (farnesoid X receptor/ECREx7 co-transfection assay, TR-FRET assay), Table I. Conditions: for EC50: agonist activity, one or more of the in vitro assays, read-out: EC50; for Emax: read-out: % Efficacy. In kind it is cell-based. The method, then: The basic co-transfection protocol for measuring the farnesoid X receptor activity is as follows. CV-1 African Green Monkey Kidney cells were plated 24 hours before transfection to achieve approximately 70-80 percent confluency. […] The assay was allowed to continue for an additional 18-20 hours, after which the cells were lysed, with lysis buffer (1% triton X 100, 10% glycerol, 5 mM Dithiothreitol, 1 mM EGTA, 25 mM Tricine, pH 7.8) and the luciferase activity measured in the presence of Luciferase assay buffer (0.73 mM ATP, 22.3 mm Tricine, 0.11 mM EGTA, 0.55 mM Luciferin, 0.15 mM Coenzyme A, 0.5 mM HEPES, 10 mM Magnesium sulphatc) on a standard luminometer plate reader (PE Biosystems, NorthStar Reader), using recommended operating instructions and conditions.
The dose response curves are generated from an 8 point curve with concentrations differing by ½ LOG units. Each point represents the average of 4 wells of data from a 384 well plate. A curve for the data is generated by using the equation:
Y=Bottom+(Top−Bottom)/(1+10̂((Log EC50−X)*HillSlope))
The EC50/IC50 is therefore defined as the concentration at which an agonist or antagonist elicits a response that is half way between the Top (maximum) and Bottom (baseline) values. The EC50/IC50 values represented are the averages of at least 3 independent experiments.
(In general: Time-resolved FRET reads energy transfer from a long-lived donor to a nearby acceptor.)

For orientation: EC50 means the concentration at which the effect is half-maximal. As to `CC(C)OC(=O)C1=CN(C(=O)C2CCCCC2)CC(C)(C)c2c1[nH]c1ccccc21` [Example 1, 1-Methylethyl 1,1-Dimethyl-1,2,3,6-Tetrahydroazepino [4,5-b]Indole-5-CarboxylateE], the EC50 lay in the range of 10 to 100 nM and the Emax was over 100%. Turning to `CC(C)OC(=O)C1=CN(C(=O)C2CCCCCC2)CC(C)(C)c2c1[nH]c1ccccc21` [Example 12, 1-Methylethyl 3-[(3,4-Difluorophenyl)Carbonyl]-8-[(f{[2-(Dimethylamino)Ethyl]amino}Carbonyl)Oxy]-1,1-Dimethyl-1,2,3,6-tetrahydroazepino[4,5-b]Indole-5-Carboxylate], the EC50 is 10 to 100 nM and the Emax was over 100%. As to `CC(C)OC(=O)C1=CN(C(=O)CCCN(C)C)CC(C)(C)c2c1[nH]c1ccccc21` [Example 20], the EC50 lay in the range of 1000 to 10000 nM. On the same count and under the same terms, next, `CC(=O)C1=CNCC(C)(C)c2c1[nH]c1ccccc21` [Example 21]: 1000 to 10000 nM. Same read-out and setting: to `CC(C)OC(=O)C1=CN(C(=O)NCCN2CCOCC2)CC(C)(C)c2c1[nH]c1ccccc21` [Example 22, 1-methylethyl 1,1-dimethyl-3-{[(2-morpholin-4-ylethyl)amino]carbonyl}-1,2,3,6-tetrahydroazepino[4,5-b]indole-5-carboxylate] belongs 1000 to 10000 nM. In the case of `CC(C)OC(=O)C1=CN(C(=O)C23C[C@H]4C[C@@H](C2)C[C@@H](C3)C4)CC(C)(C)c2c1[nH]c1ccccc21` [Example 24, 1-methylethyl 1,1-dimethyl-3-[(3s,5s,7s)-tricyclo[3.3.1.1~3,7~]dec-1-ylcarbonyl]-1,2,3,6-tetrahydroazepino [4,5-b]indole-5-carboxylate], the EC50 fell in the range of 10 to 100 nM and the Emax was over 100%. With `CCN(CC)CCN(CC)C(=O)N1C=C(C(=O)OC(C)C)c2[nH]c3ccccc3c2C(C)(C)C1` [Example 27, 1-methylethyl 3-({[2-(diethylamino)ethyl](ethyl)amino}carbonyl)-1,1-dimethyl-1,2,3,6-tetrahydro azepino [4,5-b]indole-5-carboxylate], the EC50 lay in the range of 1000 to 10000 nM.

As for `CC(C)OC(=O)C1=CN(C(=O)N2CCN(C)CC2)CC(C)(C)c2c1[nH]c1ccc(F)cc21` [Example 32, 1-methylethyl 9-fluoro-1,1-dimethyl-3-[(4-methylpiperazin-1-yl)carbonyl]-1,2,3,6-tetrahydroazepino[4,5-b]indole-5-carboxylate], the concentration for a half-maximal effect (EC50) lay within 100 to 1000 nM and the Emax was over 100%. For `CC(C)OC(=O)C1=CN(C(=O)N2CCCCCC2)CC(C)(C)c2c1[nH]c1ccccc21` [Example 40, 1-methylethyl 3-(azepan-1-ylcarbonyl)-1,1-dimethyl-1,2,3,6-tetrahydroazepino [4,5-b]indole-5-carboxylate] the same measures were 1 to 10 nM and over 100%. For `CC(C)OC(=O)C1=CN(C(=O)NC2CCCC2)CC(C)(C)c2c1[nH]c1ccccc21` [Example 44, 1-methylethyl 3-[(cyclopentylamino)carbonyl]-1,1-dimethyl-1,2,3,6-tetrahydroazepino[4,5-b]indole-5-carboxylate] the same measures were 10 to 100 nM and over 100%. In the case of `CC(C)OC(=O)C1=CN(C(=O)NC2CCCCCC2)CC(C)(C)c2c1[nH]c1ccccc21` [Example 46, 1-methylethyl 3-[(cycloheptylamino)carbonyl]-1,1-dimethyl-1,2,3,6-tetrahydroazepino[4,5-b]indole-5-carboxylate], the EC50 lay in the range of 10 to 100 nM and the Emax is over 100%.

As to `CC(C)OC(=O)C1=CN(C(=O)NCc2ccccc2)CC(C)(C)c2c1[nH]c1ccccc21` [Example 49, 1-methylethyl 1,1-dimethyl-3-{[(phenylmethyl)amino]carbonyl}-1,2,3,6-tetrahydroazepino[4,5-b]indole-5-carboxylate], the half-maximal effective concentration (EC50) is 1000 to 10000 nM and the Emax lay in the range of 80 to 100%. Take `CCN(CC)C(=O)N1C=C(C(=O)OC(C)C)c2[nH]c3ccccc3c2C(C)(C)C1` [Example 52, 1-methylethyl 3-[(diethylamino)carbonyl]-1,1-dimethyl-1,2,3,6-tetrahydroazepino[4,5-b]indole-5-carboxylate]: the concentration for a half-maximal effect (EC50) fell in the range of 10 to 100 nM and the Emax was over 100%. As to `CC(C)OC(=O)C1=CN(C(=O)N2CCCC(COCCCN(C)C)C2)CC(C)(C)c2c1[nH]c1ccccc21` (stereo not shown) [Example 55, 1-methylethyl 3-{[3-({[3-(dimethylamino)propyl]oxy}methyl)piperidin-1-yl]carbonyl}-1,1-dimethyl-1,2,3,6-tetrahydroazepino[4,5-b]indole-5-carboxylate], the EC50 lay in the range of 1000 to 10000 nM.

In the case of `CC(C)OC(=O)C1=CN(C(=O)N2CCCN(Cc3ccccc3)CC2)CC(C)(C)c2c1[nH]c1ccccc21` [Example 59, 1-methylethyl 1,1-dimethyl-3-{[4-(phenylmethyl)-1,4-diazepan-1-yl]carbonyl}-1,2,3,6-tetrahydroazepino [4,5-b]indole-5-carboxylate], the EC50 lay within 10 to 100 nM and the Emax was over 100%. On the same counts, the results for `CC(C)OC(=O)C1=CN(C(=O)c2c(F)ccc(F)c2Cl)CC(C)(C)c2c1[nH]c1ccccc21` [Example 61, 1-methylethyl 3-[(2-chloro-3,6-difluorophenyl)carbonyl]-1,1-dimethyl-1,2,3,6-tetrahydroazepino[4,5-b]indole-5-carboxylate] are 10 to 100 nM and over 100%. As for `CC(C)OC(=O)C1=CN(C(=O)c2ccccc2)CC(C)(C)c2c1[nH]c1ccccc21` [Example 62, 1-methylethyl 1,1-dimethyl-3-(phenylcarbonyl)-1,2,3,6-tetrahydroazepino[4,5-b]indole-5-carboxylate], the EC50 is 1 to 10 nM and the Emax was over 100%.

Turning to `CC(C)OC(=O)C1=CN(C(=O)c2ccccc2F)CC(C)(C)c2c1[nH]c1ccccc21` [Example 63, 1-methylethyl 3-[(2-fluorophenyl)carbonyl]-1,1-dimethyl-1,2,3,6-tetrahydroazepino[4,5-b]indole-5-carboxylate], the EC50 is 10 to 100 nM and the Emax is over 100%.

Turning to `CC(C)OC(=O)C1=CN(C(=O)c2ccccc2Cl)CC(C)(C)c2c1[nH]c1ccccc21` [Example 66, 1-methylethyl 3-[(2-chlorophenyl)carbonyl]-1,1-dimethyl-1,2,3,6-tetrahydroazepino[4,5-b]indole-5-carboxylate], the concentration giving a half-maximal response (EC50) was in the range of 1 to 10 nM and the Emax was over 100%. Regarding `Cc1ccccc1C(=O)N1C=C(C(=O)OC(C)C)c2[nH]c3ccccc3c2C(C)(C)C1` [Example 68, 1-methylethyl 1,1-dimethyl-3-[(2-methylphenyl)carbonyl]-1,2,3,6-tetrahydroazepino[4,5-b]indole-5-carboxylate], the EC50 was 10 to 100 nM and the Emax was over 100%.

For the compound `COc1ccccc1C(=O)N1C=C(C(=O)OC(C)C)c2[nH]c3ccccc3c2C(C)(C)C1` [Example 69, 1-methylethyl 1,1-dimethyl-3-{[2-(methyloxy)phenyl]carbonyl}-1,2,3,6-tetrahydroazepino[4,5-b]indole-5-carboxylate], the half-maximal effective concentration (EC50) was 10 to 100 nM and the Emax was over 100%.
